Data reported in patent publication US6355799B1, “Substituted benzene compounds, process for their preparation, and herbicidal and defoliant compositions containing them” (ISK Americas Incorporated, priority 1997, dated 2002).

Tests used:
Type in all cases: in vivo
[1] = test system: upland rice (Oryza sp., var. Tebonnet, RICE); test: Post-emerge test, crop safety; settings: post-emerge, 14 days after application, rating scale 0-100
Summary of the method: (§1)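 Compounds in acetone were track-sprayed at 15-1000 g ai/ha (187 l/ha) on sandy loam pots: pre-emerge one day after seeding, post-emerge at 2-3 leaf stage with 0.25% v/v non-ionic surfactant. Phytotoxicity was rated 14 days later on a 0 (no damage) to 100 (complete death) scale.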

[2] = test system: field corn (Zea mays L., var. Dekalb 535, CORN); test: Post-emerge test, crop safety; settings: post-emerge, 14 days after application, rating scale 0-100
Summary of the method: as §1

[3] = test system: redroot pigweed (Amaranthus retroflexus, AMARE); test: Pre-emerge test, greenhouse herbicide activity screening; settings: rated 14 days after application, 0 = no damage, 100 = complete death
Summary of the method: (§2)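 Visual ratings on a 0-100 scale (0 no damage, 100 all plants dead) were taken at 14 days after treatment. Rates of 15-1000 g ai/ha in acetone, 187 l/ha, were sprayed onto soil one day after planting (pre-emerge) or onto 2-3 leaf plants with 0.25% v/v surfactant (post-emerge).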

[4] = test system: upland rice (Oryza sp., var. Tebonnet, RICE); test: Pre-emerge test, crop safety; settings: rated 14 days after application, 0 = no damage, 100 = complete death
Summary of the method: (§3)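 Applied at 15–1000 g ai/ha from acetone in 187 l/ha spray volume. Post-emergence applications included 0.25% v/v non-ionic surfactant and reached plants sown 8–21 days before. Pre-emergence applications were incorporated by surface watering. Efficacy or crop damage was rated on a 0–100 scale after 14 days.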

[5] = test system: field corn (Zea mays L., var. Dekalb 535, CORN); test: Pre-emerge test, crop safety; settings: rated 14 days after application, 0 = no damage, 100 = complete death
Summary of the method: as §3

[6] = test system: green foxtail (Setaria viridis, SETVI); test: Pre-emerge test, greenhouse herbicide activity screening; settings: rated 14 days after application, 0 = no damage, 100 = complete death
Summary of the method: as §1

[7] = test system: large crabgrass (Digitaria sanguinalis, DIGSA); test: as above; settings: rated 14 days after application, 0 = no damage, 100 = complete death
Summary of the method: as §1

[8] = test system: lambsquarters (Chenopodium album, CHEAL); test: as above; settings: rated 14 days after application, 0 = no damage, 100 = complete death
Summary of the method: as §1

[9] = test system: velvetleaf (Abutilon theophrasti, ABUTH); test: as above; settings: rated 14 days after application, 0 = no damage, 100 = complete death
Summary of the method: as §1

[10] = test system: johnsongrass (Sorghum halepense, SORHA); test: as above; settings: rated 14 days after application, 0 = no damage, 100 = complete death
Summary of the method: as §1

[11] = test system: sicklepod (Cassia obtusifolia, CASOB); test: as above; settings: rated 14 days after application, 0 = no damage, 100 = complete death
Summary of the method: as §1

[12] = test system: ivyleaf morningglory (Ipomoea hederacea, IPOHE); test: as above; settings: rated 14 days after application, 0 = no damage, 100 = complete death
Summary of the method: as §1

[13] = test system: barnyardgrass (Echinochloa crus-galli, ECHCG); test: as above; settings: rated 14 days after application, 0 = no damage, 100 = complete death
Summary of the method: as §1

[14] = test system: redroot pigweed (Amaranthus retroflexus, AMARE); test: Post-emerge test, greenhouse herbicide activity screening; settings: post-emerge, 14 days after application, rating scale 0-100
Summary of the method: as §2

[15] = test system: green foxtail (Setaria viridis, SETVI); test: as above; settings: post-emerge, 14 days after application, rating scale 0-100
Summary of the method: as §2

[16] = test system: large crabgrass (Digitaria sanguinalis, DIGSA); test: as above; settings: post-emerge, 14 days after application, rating scale 0-100
Summary of the method: as §2

[17] = test system: lambsquarters (Chenopodium album, CHEAL); test: as above; settings: post-emerge, 14 days after application, rating scale 0-100
Summary of the method: as §2

[18] = test system: velvetleaf (Abutilon theophrasti, ABUTH); test: as above; settings: post-emerge, 14 days after application, rating scale 0-100
Summary of the method: as §2

[19] = test system: johnsongrass (Sorghum halepense, SORHA); test: as above; settings: post-emerge, 14 days after application, rating scale 0-100
Summary of the method: as §2

[20] = test system: sicklepod (Cassia obtusifolia, CASOB); test: as above; settings: post-emerge, 14 days after application, rating scale 0-100
Summary of the method: as §2

[21] = test system: ivyleaf morningglory (Ipomoea hederacea, IPOHE); test: as above; settings: post-emerge, 14 days after application, rating scale 0-100
Summary of the method: as §2

[22] = test system: barnyardgrass (Echinochloa crus-galli, ECHCG); test: as above; settings: post-emerge, 14 days after application, rating scale 0-100
Summary of the method: as §2

Which results are given for COc1c(Cl)cc(F)c(-n2c(=O)cc(C(F)(F)F)n(C)c2=O)c1N(C(=O)COc1ccccc1)C(=O)COc1ccccc1 [2-120]?
phytotoxicity rating RICE ([1]; 63 g ai/ha): 50; phytotoxicity rating RICE ([1]; 250 g ai/ha): 90; phytotoxicity rating CORN ([2]; 63 g ai/ha): 50; phytotoxicity rating CORN ([2]; 250 g ai/ha): 70; Pre-emerge Herbicidal Activity, phytotoxicity rating (0-100), AMARE ([3]; 63 g ai/ha): 90; Pre-emerge Herbicidal Activity, phytotoxicity rating (0-100), AMARE ([3]; 250 g ai/ha): 100; Pre-emerge phytotoxicity rating (0-100), crop damage, RICE ([4]; 63 g ai/ha): 80; Pre-emerge phytotoxicity rating (0-100), crop damage, RICE ([4]; 250 g ai/ha): 95; Pre-emerge phytotoxicity rating (0-100), crop damage, CORN ([5]; 63 g ai/ha): 0; Pre-emerge phytotoxicity rating (0-100), crop damage, CORN ([5]; 250 g ai/ha): 90; Pre-emerge Herbicidal Activity, phytotoxicity rating (0-100), SETVI ([6]; 63 g ai/ha): 70; Pre-emerge Herbicidal Activity, phytotoxicity rating (0-100), SETVI ([6]; 250 g ai/ha): 100; Pre-emerge Herbicidal Activity, phytotoxicity rating (0-100), DIGSA ([7]; 63 g ai/ha): 80; Pre-emerge Herbicidal Activity, phytotoxicity rating (0-100), DIGSA ([7]; 250 g ai/ha): 100; Pre-emerge Herbicidal Activity, phytotoxicity rating (0-100), CHEAL ([8]; 63 g ai/ha): 100; Pre-emerge Herbicidal Activity, phytotoxicity rating (0-100), CHEAL ([8]; 250 g ai/ha): 100; Pre-emerge Herbicidal Activity, phytotoxicity rating (0-100), ABUTH ([9]; 63 g ai/ha): 100; Pre-emerge Herbicidal Activity, phytotoxicity rating (0-100), ABUTH ([9]; 250 g ai/ha): 100; Pre-emerge Herbicidal Activity, phytotoxicity rating (0-100), SORHA ([10]; 63 g ai/ha): 50; Pre-emerge Herbicidal Activity, phytotoxicity rating (0-100), SORHA ([10]; 250 g ai/ha): 95; Pre-emerge Herbicidal Activity, phytotoxicity rating (0-100), CASOB ([11]; 63 g ai/ha): 40; Pre-emerge Herbicidal Activity, phytotoxicity rating (0-100), CASOB ([11]; 250 g ai/ha): 70; Pre-emerge Herbicidal Activity, phytotoxicity rating (0-100), IPOHE ([12]; 63 g ai/ha): 50; Pre-emerge Herbicidal Activity, phytotoxicity rating (0-100), IPOHE ([12]; 250 g ai/ha): 80; Pre-emerge Herbicidal Activity, phytotoxicity rating (0-100), ECHCG ([13]; 63 g ai/ha): 60; Pre-emerge Herbicidal Activity, phytotoxicity rating (0-100), ECHCG ([13]; 250 g ai/ha): 90; phytotoxicity rating AMARE ([14]; 63 g ai/ha): 90; phytotoxicity rating AMARE ([14]; 250 g ai/ha): 100; phytotoxicity rating SETVI ([15]; 63 g ai/ha): 20; phytotoxicity rating SETVI ([15]; 250 g ai/ha): 60; phytotoxicity rating DIGSA ([16]; 63 g ai/ha): 10; phytotoxicity rating DIGSA ([16]; 250 g ai/ha): 60; phytotoxicity rating CHEAL ([17]; 63 g ai/ha): 80; phytotoxicity rating CHEAL ([17]; 250 g ai/ha): 80; phytotoxicity rating ABUTH ([18]; 63 g ai/ha): 100; phytotoxicity rating ABUTH ([18]; 250 g ai/ha): 100; phytotoxicity rating SORHA ([19]; 63 g ai/ha): 40; phytotoxicity rating SORHA ([19]; 250 g ai/ha): 50; phytotoxicity rating CASOB ([20]; 63 g ai/ha): 40; phytotoxicity rating CASOB ([20]; 250 g ai/ha): 30; phytotoxicity rating IPOHE ([21]; 63 g ai/ha): 100; phytotoxicity rating IPOHE ([21]; 250 g ai/ha): 100; phytotoxicity rating ECHCG ([22]; 63 g ai/ha): 40; phytotoxicity rating ECHCG ([22]; 250 g ai/ha): 30

Which results are given for COc1c(Cl)cc(F)c(-n2c(=O)cc(C(F)(F)F)n(C)c2=O)c1NC(=O)C(=O)c1ccccc1 [2-121]?
phytotoxicity rating RICE ([1]; 63 g ai/ha): 15; phytotoxicity rating RICE ([1]; 250 g ai/ha): 25; phytotoxicity rating CORN ([2]; 63 g ai/ha): 10; phytotoxicity rating CORN ([2]; 250 g ai/ha): 20; Pre-emerge Herbicidal Activity, phytotoxicity rating (0-100), AMARE ([3]; 63 g ai/ha): 100; Pre-emerge Herbicidal Activity, phytotoxicity rating (0-100), AMARE ([3]; 250 g ai/ha): 100; Pre-emerge phytotoxicity rating (0-100), crop damage, RICE ([4]; 63 g ai/ha): 0; Pre-emerge phytotoxicity rating (0-100), crop damage, RICE ([4]; 250 g ai/ha): 0; Pre-emerge phytotoxicity rating (0-100), crop damage, CORN ([5]; 63 g ai/ha): 0; Pre-emerge phytotoxicity rating (0-100), crop damage, CORN ([5]; 250 g ai/ha): 10; Pre-emerge Herbicidal Activity, phytotoxicity rating (0-100), SETVI ([6]; 63 g ai/ha): 0; Pre-emerge Herbicidal Activity, phytotoxicity rating (0-100), SETVI ([6]; 250 g ai/ha): 60; Pre-emerge Herbicidal Activity, phytotoxicity rating (0-100), DIGSA ([7]; 63 g ai/ha): 0; Pre-emerge Herbicidal Activity, phytotoxicity rating (0-100), DIGSA ([7]; 250 g ai/ha): 30; Pre-emerge Herbicidal Activity, phytotoxicity rating (0-100), CHEAL ([8]; 63 g ai/ha): 80; Pre-emerge Herbicidal Activity, phytotoxicity rating (0-100), CHEAL ([8]; 250 g ai/ha): 100; Pre-emerge Herbicidal Activity, phytotoxicity rating (0-100), ABUTH ([9]; 63 g ai/ha): 100; Pre-emerge Herbicidal Activity, phytotoxicity rating (0-100), ABUTH ([9]; 250 g ai/ha): 100; Pre-emerge Herbicidal Activity, phytotoxicity rating (0-100), SORHA ([10]; 63 g ai/ha): 0; Pre-emerge Herbicidal Activity, phytotoxicity rating (0-100), SORHA ([10]; 250 g ai/ha): 0; Pre-emerge Herbicidal Activity, phytotoxicity rating (0-100), CASOB ([11]; 63 g ai/ha): 0; Pre-emerge Herbicidal Activity, phytotoxicity rating (0-100), CASOB ([11]; 250 g ai/ha): 50; Pre-emerge Herbicidal Activity, phytotoxicity rating (0-100), IPOHE ([12]; 63 g ai/ha): 0; Pre-emerge Herbicidal Activity, phytotoxicity rating (0-100), IPOHE ([12]; 250 g ai/ha): 90; Pre-emerge Herbicidal Activity, phytotoxicity rating (0-100), ECHCG ([13]; 63 g ai/ha): 0; Pre-emerge Herbicidal Activity, phytotoxicity rating (0-100), ECHCG ([13]; 250 g ai/ha): 0; phytotoxicity rating AMARE ([14]; 63 g ai/ha): 90; phytotoxicity rating AMARE ([14]; 250 g ai/ha): 100; phytotoxicity rating SETVI ([15]; 63 g ai/ha): 0; phytotoxicity rating SETVI ([15]; 250 g ai/ha): 20; phytotoxicity rating DIGSA ([16]; 63 g ai/ha): 0; phytotoxicity rating DIGSA ([16]; 250 g ai/ha): 10; phytotoxicity rating CHEAL ([17]; 63 g ai/ha): 60; phytotoxicity rating CHEAL ([17]; 250 g ai/ha): 80; phytotoxicity rating ABUTH ([18]; 63 g ai/ha): 70; phytotoxicity rating ABUTH ([18]; 250 g ai/ha): 100; phytotoxicity rating SORHA ([19]; 63 g ai/ha): 0; phytotoxicity rating SORHA ([19]; 250 g ai/ha): 10; phytotoxicity rating CASOB ([20]; 63 g ai/ha): 10; phytotoxicity rating CASOB ([20]; 250 g ai/ha): 60; phytotoxicity rating IPOHE ([21]; 63 g ai/ha): 100; phytotoxicity rating IPOHE ([21]; 250 g ai/ha): 100; phytotoxicity rating ECHCG ([22]; 63 g ai/ha): 0; phytotoxicity rating ECHCG ([22]; 250 g ai/ha): 0
